Test results as given in US12002595B2, “Separation of metal ions by liquid-liquid extraction” (priority 2016, dated 2024).

Columns and labels:
[1] = Stability constant (log β) of ligand-metal complexes; format: binding; conditions: 25.0° C., 0.1 M KCl
Method: Solution Thermodynamics. All titrant solutions were degassed by boiling for 1 h while being purged under Ar. Carbonate-free 0.1 M KOH was prepared from concentrate (J. T Baker Dilut-It) and was standardized by titrating against 0.1 M potassium hydrogen phthalate (99.95%, Sigma Aldrich). Solutions of 0.1 M HCl were similarly prepared and were standardized by titrating against TRIS (99.9%, J. T. Baker). The glass electrode (Metrohm—Micro Combi—response to [H+]) used for the pH measurements was calibrated at 25.0° C. and at an ionic strength of 0.1 M (KCl) before each potentiometric or spectrophotometric titration. The calibration data were analyzed using the program GLEE (Gans & O'Sullivan, Talanta, 2000, 51 (1): 33-37) to refine for the E° and slope. All thermodynamic measurements were conducted at 25.0° C., in 0.1 M KCl supporting electrolyte under positive Ar gas pressure. The automated titration system was controlled by an 867 pH Module (Metrohm). Two-milliliter Dosino 800 burets (Metrohm) dosed the titrant (0.1 M KOH or 0.1 M HCl) into the thermostated titration vessel (5-90 mL). UV-visible spectra were acquired with an Ocean Optics USB4000-UV-vis spectrometer equipped with a TP-300 dip probe (Ocean Optics; path length of 10 mm), fiber optics and a DH-2000 light source (deuterium and halogen lamps). The fully automated titration system and the UV-vis spectrophotometer were coordinated by LBNL titration system, a computer program developed in house.
Incremental Spectrophotometric Titrations. This method was used to determine the protonation constants of 3,4,3-LI(CAM) as well as the stability constants of its complexes formed with Eu(III), Zr(IV) and ^232Th(IV). The experimental titration setup is similar to previously described systems (Sturzbecher-Hoehne, et al., Radiochimica Acta., 2013, 101 (6): 359-366). For the 3,4,3-LI(CAM) protonation (and Eu(III)-3,4,3-LI(CAM) complexes), titrations were performed with an initial concentration of 50 μM of 3,4,3-LI(CAM) (and 50 μM of Eu(III)) resulting in absorbance values included between 0 and 1.0 throughout the titration. Typically, 9 mL of a sample containing 3,4,3-LI(CAM) (and Eu(III)) and the supporting electrolyte (KCl/HCl) were incrementally perturbed by addition of 0.025 mL of carbonate-free 0.1 M KOH followed by a time delay of 80 s. Buffering of the solution was ensured by the addition of 10 mM of HEPES, 10 mM of CHES and 10 mM of MES. Between 130 and 250 data points were collected per titration, each data point including a pH measurement and a UV-Vis spectrum (250-450 nm) over the pH range 1.5 to 12.0. All spectra were corrected for dilution before data fitting. The entire procedure (electrode calibrate, titration and data treatment) was performed independently five times for the protonation constants and four times for the Eu(III)-3,4,3-LI(CAM) complexes. For the Zr(IV) and Th(IV) complexes, titrations were performed similarly but in the presence of DTPA to avoid the formation of metal hydroxides at low pH, before the uptake by 3,4,3-LI(CAM). For each metal, three titrations were performed independently in the presence of 1.1 to 40 equivalents of DTPA.
Data Treatment. […] All metal and chelator concentrations were held at estimated values determined from the volume of standardized stock solutions. All species formed with 3,4,3-LI(CAM) were considered to have significant absorbance to be observed in the UV-vis spectra and were therefore included in the refinement process. […]

[2] = Extraction by HDEHP with 1 mM 343HOPO in 0.1 M HNO3 and 1.9 M NaNO3; conditions: chelator in place of 343HOPO; acidic conditions
Method: Aqueous phase: 1 mM 343HOPO in 0.1 M HNO3 and 1.9 M NaNO3. Organic phase: HDEHP in kerosene.
A log scale is used for clarity. See FIGS. 58A and 58B for results as a function of the phase ratio.
(§1) For Example 20—Example 24, pH measurements were performed with a glass electrode (Metrohm-Micro Combi-response to [H+]) calibrated at 25.0° C. using three NIST standards. Extraction samples were analyzed by liquid scintillation counting (LSC). The distribution coefficient, D(M), of a given metal, M, is defined in Eq. 1, where [M]organic and [M]aqueous are the respective total concentrations of M in the organic and aqueous layers, after extraction. Both concentrations are proportional to the volumetric activity (in Bq/L) determined by LSC. The separation factor, SFM1/M2, between two metals, M1 and M2, and extraction yield were calculated according to Eq. 2 and Eq. 3, respectively.
(§2) In a typical experiment, the solvent (extractant diluted in kerosene) was pre-conditioned by shaking one volume of solvent with three volumes of aqueous phase (typically HNO3) at room temperature for 1 h, thrice. For radioisotope extractions, at least 400 μL aqueous phase (typically containing HNO3, a chelator and a radioisotope) and solvent were placed in air-tight screw-capped plastic tubes, triply-contained, and shaken in a thermoshaker at 300 rpm, 25° C., for at least 30 min. Samples were then centrifuged for 5 min at 3000 rpm and phases separated before analysis. LSC analyses were performed on a Packard Tri-Carb B4430 instrument (Perkin Elmer) after mixing sample aliquots or sample dilution aliquots (10 to 200 μL) with 10 mL of scintillation cocktail (UltimaGold LLT). Samples were counted for at least 6 min and results were background subtracted. The analytical samples contained between 0 and 800,000 CPM. Mixtures of ^249Bk and ^249Cf were analyzed using α/β discrimination and energy windows were set to 0-50 keV for low-energy β particles of ^249Bk and 50-1000 keV for α particles of ^249Cf. ^243Am and ^225Ac samples were counted at secular equilibrium.

[3] = Extraction by TODGA from HNO3 in the absence or presence of 1 mM 343HOPO
Method: Organic phase: 0.1 M TODGA in kerosene. Aqueous solvent: HNO3. T=25° C. O/A=1, one contact. Points with arrows are lower limits.
as §1, §2

[4] = Eu(III), I=2.0 M at 25° C.; cited from earlier work

SMILES: O=C(NCCCN(CCCCN(CCCNC(=O)c1cccc(O)c1O)C(=O)c1cccc(O)c1O)C(=O)c1cccc(O)c1O)c1cccc(O)c1O [3,4,3-LI(CAM)]
- log β110 ([1]; [Eu-3,4,3-LI(CAM)]^5−): 29.7
- log β110 ([1]; [Th-3,4,3-LI(CAM)]^4−): 47.7
- log β110 ([1]; [Zr-3,4,3-LI(CAM)]^4−): 57.3

SMILES: O=C(O)CN(CC(=O)O)[C@H]1CCCC[C@@H]1N(CC(=O)O)CC(=O)O [CDTA, Trans-1,2-cyclohexanediamine-N,N,N′,N′-tetraacetic acid]
- separation between Bk and Cf [2]: no separation at all

SMILES: O=C(O)CN(CCN(CC(=O)O)CC(=O)O)CC(=O)O [EDTA, Ethylenediaminetetraacetic acid]
- separation between Bk and Cf [2]: no separation at all

SMILES: O=C(O)CN(CC(=O)O)CC(=O)O [NTA, Nitrilotriacetic acid]
- separation between Bk and Cf [2]: no separation at all

SMILES: CCCCCCCCN(CCCCCCCC)C(=O)COCC(=O)N(CCCCCCCC)CCCCCCCC [TODGA, N,N,N′,N′-tetraoctyl diglycolamide, reference compound]
- distribution factor of uranyl (Du) ([3]; TODGA as extractant): < 30
- extraction yields of Gd^3+, Lu^3+, UO2^2+, Pu^4+, and Cf^3+ from HNO3 ([3]; if HNO3>1 M, no chelator, 0.1 M TODGA in kerosene): > 99.5%

SMILES: CC(O)C(=O)O (stereo not drawn) [lactate]
- log β130 [4]: 5.88
